Data: ChEMBL document CHEMBL1155667, “A cytotoxic 5alpha,8alpha-epidioxysterol from a soft coral Sinularia species” (2000)
≈ marks a conversion by molar mass, not a printed value.

What was measured:
Format in all cases: functional
Conditions in all cases: read-out: ED50 (the source's name)
[1] = system: KB; test: Cytotoxicity against human KB cells by modified MTT assay
[2] = system: A549; test: Cytotoxicity against human A549 cells by modified MTT assay
[3] = system: HT-29; test: Cytotoxicity against human HT29 cells by modified MTT assay
[4] = system: P388; test: Cytotoxicity against mouse P388 cells by modified MTT assay

SMILES | EC50 [1] | EC50 [2] | EC50 [3] | EC50 [4]
C=C(CC[C@@H](C)[C@H]1CC[C@H]2[C@@H]3C[C@@H](O)[C@@]4(O)C[C@@H](O)C[C@H](O)[C@]4(C)[C@H]3CC[C@]12C)C(C)C | 1.9 µg/mL (≈ 4.23 µM) | 10.8 µg/mL (≈ 24.1 µM) | 1.5 µg/mL (≈ 3.34 µM) | 8.3 µg/mL (≈ 18.5 µM)
CC(=O)[C@H]1CC[C@H]2[C@@H]3CC=C4C[C@@H](O)CC[C@]4(C)[C@H]3CC[C@]12C [PREGNENOLONE] | > 50 µg/mL | 8.6 µg/mL (≈ 27.2 µM) | 0.7 µg/mL (≈ 2.21 µM) | 7.8 µg/mL (≈ 24.6 µM)
CC(C)[C@@H](C)[C@H]1C[C@@H]1[C@@H](C)[C@H]1CC[C@@H]2[C@]1(C)CC[C@H]1[C@]23C=C[C@]2(C[C@@H](O)CC[C@]12C)OO3 | 2.1 µg/mL (≈ 4.74 µM) | 2.7 µg/mL (≈ 6.1 µM) | 1.4 µg/mL (≈ 3.16 µM) | 0.4 µg/mL (≈ 0.904 µM)
